Earlier results, collected in patent US9961900B2, “Herbicide formulations” (priority 2012, dated 2018).
≈ marks a conversion by molar mass, not a printed value. Like-named read-outs stand apart in the source and are kept apart here.

Columns and labels:
[1] = not given; remark: listed apart in the source
[2] = for Aqueous hydrolysis: at pH 7 and 20° C.
[3] = not given; remark: listed apart in the source

Q: Which Solubility in acetone (20° C.) does the source give for `COC(=O)C(C)Oc1ccc(Oc2ccc(Cl)cc2Cl)cc1` (racemic) [diclofop-methyl, methyl (RS)-2-[4-(2,4-dichlorophenoxy)phenoxy]propionate] here?
A: Its Solubility in acetone is “In acetone, toluene, dichloromethane, 500,000 mg/L”.

Q: And the Solubility in dichloromethane (20° C.)?
A: The Solubility in dichloromethane was “In acetone, toluene, dichloromethane, 500,000 mg/L”.

Q: And the “Solubility in n-hexane” value (20° C.)?
A: The value was “mg/L; in n-Hexane: 49,700 mg/L (all at 20° C.) ^++”.

Q: What about the Solubility in toluene (20° C.) of the same molecule?
A: The Solubility in toluene was “In acetone, toluene, dichloromethane, 500,000 mg/L”.

Q: What about the Solubility in water (20° C.) of the same molecule?
A: The Solubility in water was “Water: 0.39 mg/L (20° C.)”.

Q: And the “log P (octanol-water)” value ([1]; pH 7, 20° C.)?
A: The value was “log P = 4.8”.

Q: What about the “Aqueous hydrolysis (DT50)” value ([2]; 20° C. and pH 7) of the same molecule?
A: Its value is “at 20 °C and pH 7: 31.7 days”.

Q: What about the “Hydrolysis DT50” value ([2]; pH 5, 25° C., darkness) of the same molecule?
A: Its value is 363 days.

Q: And the “Hydrolysis DT50” value ([2]; pH 7, 25° C., darkness)?
A: The value was 31.7 days.

Q: And the “Hydrolysis DT50” value ([2]; pH 9, 25° C., darkness)?
A: The value was 0.52 days.

Q: And the “Aqueous photolysis DT50” value ([3]; pH 7)?
A: The value was “Aqueous photolysis DT50 at pH 7: 22 days^++”.

Q: With `COc1ncc(F)c2nc(S(=O)(=O)Nc3c(F)cccc3F)nn12` [florasulam] as the molecule, how does the Solubility in acetone read?
A: Its Solubility in acetone is “Acetone: 123,000 mg/L”.

Q: And the Solubility in water?
A: Its Solubility in water is “Water: 6360 mg/L”.

Q: What about the “log P (octanol-water)” value [1] of the same molecule?
A: Its value is “log P: −1.22”.

Q: And the Aqueous hydrolysis [2]?
A: The Aqueous hydrolysis was “Stable”.

Q: And the “Photolytic stability DT50” value ([3]; at pH 7)?
A: The value was “DT50: 156 d”.

Q: For `C#CCOc1cc(-n2nc3n(c2=O)CCCC3)c(Cl)cc1Cl` [azafenidin, 2-(2,4-dichloro-5-prop-2-ynyloxyphenyl)-5,6,7,8-tetrahydro-1,2,4-triazolo[4,3-a]pyridin-3(2H)-one], which Solubility in water (20° C.) is on record?
A: The Solubility in water was “Water: 16 mg/L (20° C.) ^++”.

Q: What about the “log P (octanol-water)” value ([1]; pH 7, 20° C.) of the same molecule?
A: Its value is “logP = 2.7”.

Q: What about the “Aqueous photolysis DT50” value ([3]; Pesticide Properties Database) of the same molecule?
A: The value was 0.5 days.

Q: What does the source list for `COC(=O)[C@@H](C)Oc1ccc(Oc2ncc(C(F)(F)F)cc2Cl)cc1` [haloxyfop-p-methyl, methyl (R)-2-{4-[3-chloro-5-(trifluoromethyl)-2-pyridyloxy]phenoxy}propionate]?
A: Solubility in acetone (25° C.): > 500 mg/mL; Solubility in dichloromethane (25° C.): > 500 mg/mL; Solubility in ethyl acetate (25° C.): > 500 mg/mL; Solubility in methanol (25° C.): 76 mg/mL (≈ 202 mM); Solubility in n-hexane (25° C.): 11 mg/mL (≈ 29.3 mM); Solubility in toluene (25° C.): > 500 mg/mL; Solubility in water (pH 5, 25° C.): 6.9 mg/L (≈ 0.0184 mM); Solubility in water (pH 7, 25° C.): 7.9 mg/L at pH 7 (all at 25° C.); Solubility in water (unbuffered, 25° C.): 9.1 mg/L (≈ 0.0242 mM); log P (octanol-water) ([1]; 20° C.): log P = 4.0; DT50 ([2]; natural water, 20° C.): 3 days; DT50 ([2]; pH 4, 20° C.): stable; DT50 ([2]; pH 7, 20° C.): 43 days; DT50 ([2]; pH 9, 20° C.): 0.63 d (pH 9) (all at 20° C.) ^+; Aqueous photolysis DT50 ([3]; pH 7): Aqueous photolysis DT50 at pH 7: 20 days^++

Q: Which results are given for `CCCCOC(=O)C(C)Oc1ccc(Oc2ccc(C(F)(F)F)cn2)cc1` (racemic) [fluazifop-butyl, butyl (RS)-2-{4-[5-(trifluoromethyl)-2-pyridyloxy]phenoxy}propionate]?
A: Solubility in propylene glycol (20° C.): dichloromethane, and xylene. Propylene glycol, 24 g/L; Solubility in water (pH 6.5): Water: 1 mg/L at pH 6.5; log P (octanol-water) ([1]; 20° C.): log P = 4.5

Q: What does the source list for `CCOC(=O)C(Cl)Cc1cc(-n2nc(C)n(C(F)F)c2=O)c(F)cc1Cl` (racemic) [carfentrazone-ethyl, ethyl (RS)-2-chloro-3-{2-chloro-5-[4-(difluoromethyl)-4,5-dihydro-3-methyl-5-oxo-1H-1,2,4-triazol-1-yl]-4-fluorophenyl}propionate]?
A: Solubility in acetone (20° C.): 2000 mg/mL (≈ 4850 mM); Solubility in ethanol (20° C.): 2000 mg/mL (≈ 4850 mM); Solubility in hexane (20° C.): 30 mg/mL (≈ 72.8 mM); Solubility in toluene (20° C.): 900 mg/mL (≈ 2180 mM); Solubility in water (20° C.): Water: 22 mg/L (20° C.); log P (octanol-water) ([1]; pH 7, 20° C.): logP = 3.36; Aqueous hydrolysis (DT50) ([2]; 20° C. and pH 7): 13.7 (non-persistent) days; Aqueous hydrolysis stability ([2]; pH 5, 20° C.): pH sensitive: stable at pH 5,; Hydrolysis DT50 ([2]; pH 9, 20° C.): DT50 5.1 hours at pH 9, (20° C.)^+

Q: Which “log P (octanol-water)” value ([1]; pH 5) does the source give for `CC(Oc1ccc(Oc2ccc(Cl)cc2Cl)cc1)C(=O)O` (racemic) [diclofop, (RS)-2-[4-(2,4-dichlorophenoxy)phenoxy]propionic acid] here?
A: Its value is “log P = 2.81”.

Q: What about the “log P (octanol-water)” value ([1]; pH 7) of the same molecule?
A: The value was “log P = 1.61”.

Q: Which results are given for `COc1cc(OC)n2nc(NS(=O)(=O)c3c(C(F)(F)F)ccnc3OC)nc2n1` [pyroxsulam]?
A: Aqueous hydrolysis [2]: Stable (“”); Photolytic stability DT50 ([3]; pH 7): DT50: 3.2 d (“”)

Q: Which “Aqueous hydrolysis (DT50)” value ([2]; at pH 5) does the source give for `COC(=O)c1ccccc1S(=O)(=O)NC(=O)N(C)c1nc(C)nc(OC)n1` [tribenuron-methyl] here?
A: Its value is 2.2 days.

Q: And the “Aqueous hydrolysis (DT50)” value ([2]; at pH 7)?
A: Its value is 16.

Q: What about the “Photolytic stability DT50” value ([3]; pH 7) of the same molecule?
A: The value was “Stable”.

Q: Which results are given for `COc1cc(OC)n2nc(S(=O)(=O)Nc3c(Cl)ccc(C)c3Cl)nc2n1` [metosulam]?
A: Aqueous hydrolysis [2]: Stable; Photolytic stability DT50 ([3]; pH 7): DT50: 31.1 d

Q: With `COC(=O)c1ccccc1S(=O)(=O)NC(=O)Nc1nc(C)nc(OC)n1` [metsulfuron-methyl] as the molecule, how does the “Aqueous hydrolysis (DT50)” value ([2]; at pH 5) read?
A: The value was 2 days.

Q: And the “Aqueous hydrolysis (DT50)” value ([2]; at pH 7)?
A: Its value is “Stable”.

Q: And the “Photolytic stability DT50” value ([3]; pH 7)?
A: Its value is “Stable”.

Q: Which “Aqueous hydrolysis (DT50)” value ([2]; 20° C. and pH 7) does the source give for `CCCCOC(=O)[C@@H](C)Oc1ccc(Oc2ccc(C(F)(F)F)cn2)cc1` [fluazifop-P-butyl, butyl (R)-2-{4-[5-(trifluoromethyl)-2-pyridyloxy]phenoxy}propionate] here?
A: Its value is “Aqueous hydrolysis DT50 (days) at 20 °C and pH 7: 78”.

Q: And the “Hydrolysis DT50” value ([2]; pH 5, 25° C., darkness)?
A: The value was “Stable”.

Q: And the “Hydrolysis DT50” value ([2]; pH 9, 25° C., darkness)?
A: The value was 1.21 days.

Q: And the “Aqueous photolysis DT50” value ([3]; pH 7)?
A: The value was “Aqueous photolysis DT50 at pH 7: 6 days”.

Q: For `CCON=C(CC)C1=C(O)CC(c2c(C)cc(C)cc2C)CC1=O` (racemic) [tralkoxydim, (RS)-2-[(EZ)-1-(ethoxyimino)propyl]-3-hydroxy-5-mesitylcyclohex-2-en-1-one], which Solubility in water (pH 5.2) is on record?
A: Its Solubility in water is 6.7 mg/L at 22 °C (pH 5.2).

Q: What about the Solubility in water (pH 6.5) of the same molecule?
A: Its Solubility in water is 6.1 mg/L at 22 °C (pH 6.5).

Q: What about the Solubility in water (pH 9) of the same molecule?
A: Its Solubility in water is 9820 mg/L at 22 °C (pH 9.0).

Q: What about the “Aqueous hydrolysis (DT50)” value ([2]; 20° C. and pH 7) of the same molecule?
A: The value was “at 20 °C and pH 7: 140 days”.

Q: What about the “Hydrolysis DT50” value ([2]; pH 5, 25° C.) of the same molecule?
A: The value was “pH sensitive: DT50 9 days at pH 5,”.

Q: And the Aqueous hydrolysis stability ([2]; pH 9)?
A: The Aqueous hydrolysis stability was “stable at pH 9, all at 25° C.^+”.

Q: What about the “Aqueous photolysis DT50” value ([3]; pH 7) of the same molecule?
A: The value was “Aqueous photolysis DT50 at pH 7: 5.8 days 5.8 ^+”.

Q: Which results are given for `COc1nc(C)nc(NC(=O)NS(=O)(=O)c2ccccc2Cl)n1` [chlorsulfuron]?
A: Aqueous hydrolysis (DT50) ([2]; at pH 5): 1 days; Aqueous hydrolysis (DT50) ([2]; at pH 7): Stable; Photolytic stability DT50 ([3]; pH 7): DT50: 18.8 d

Q: Which Solubility in acetone (20° C.) does the source give for `CCOC(=O)[C@@H](C)Oc1ccc(Oc2nc3ccc(Cl)cc3o2)cc1` [fenoxaprop-p-ethyl, ethyl (R)-2-[4-(6-chloro-1,3-benzoxazol-2-yloxy)phenoxy]propionate] here?
A: The Solubility in acetone was “In acetone, ethyl acetate, toluene, >200 g/L;”.

Q: And the “Solubility in ethyl acetate” value (20° C.)?
A: The value was “In acetone, ethyl acetate, toluene, >200 g/L;”.

Q: What about the Solubility in methanol (20° C.) of the same molecule?
A: The Solubility in methanol was “methanol 43 g/L (all at 20° C.) ^+”.

Q: And the Solubility in water (pH 5.8, 25° C.)?
A: Its Solubility in water is “Water: 0.7 mg/L at pH 5.8 (25° C.)”.

Q: What about the “log P (octanol-water)” value [1] of the same molecule?
A: Its value is “log P = 4.58 ^+”.

Q: And the “Hydrolytic DT50” value ([2]; pH 4, 25° C.)?
A: Its value is 2.8 days.

Q: What about the “Hydrolytic DT50” value ([2]; pH 5, 25° C.) of the same molecule?
A: The value was 19.2 days.

Q: What about the “Hydrolytic DT50” value ([2]; pH 7, 25° C.) of the same molecule?
A: The value was 23.2 days.

Q: And the “Hydrolytic DT50” value ([2]; pH 9, 25° C.)?
A: The value was 7), 0.6 d (pH 9) (all at 25° C.) ^+.

Q: What about the “Aqueous photolysis DT50” value ([3]; pH 7) of the same molecule?
A: Its value is “Aqueous photolysis DT50 at pH 7: 105 days”.

Q: With `CCCCOC(=O)[C@@H](C)Oc1ccc(Oc2ccc(C#N)cc2F)cc1` [cyhalofop-butyl, butyl (R)-2-[4-(4-cyano-2-fluorophenoxy)phenoxy]propionate] as the molecule, how does the “log P (octanol-water)” value ([1]; pH 7, 20° C.) read?
A: The value was “log P = 4.8”.

Q: What about the “Aqueous hydrolysis (DT50)” value ([2]; 20° C. and pH 7) of the same molecule?
A: Its value is “Aqueous hydrolysis DT50 at 20 °C and pH 7: 97 days”.

Q: And the Aqueous hydrolysis stability ([2]; pH 4, 25° C.)?
A: The Aqueous hydrolysis stability was “Stable”.

Q: What about the “Hydrolysis DT50” value ([2]; pH 9, 25° C.) of the same molecule?
A: Its value is 2 days.

Q: For `C#CCOC(=O)[C@@H](C)Oc1ccc(Oc2ncc(Cl)cc2F)cc1` [clodinafop-propargyl, prop-2-ynyl (R)-2-[4-(5-chloro-3-fluoro-2-pyridyloxy)phenoxy]propionate], which “Behaviour in alkaline media” value ([2]; alkaline media) is on record?
A: The value was “hydrolyzes”.

Q: What about the “Hydrolytic DT50” value ([2]; pH 7, 25° C.) of the same molecule?
A: The value was 4.8 days.

Q: What about the “Hydrolytic DT50” value ([2]; pH 9, 25° C.) of the same molecule?
A: The value was 0.07 days.

Q: And the “Aqueous photolysis DT50” value ([3]; pH 7)?
A: The value was “Aqueous photolysis DT50 at pH 7: 24 days”.
